Assay type in all cases: toxicity, cell-based
One data set has as its system U2OS. The data set is described as follows: Incucyte cell viability with U2OS. As to conditions: human, 10 µM, compound concentration 10 uM.
A further data set deals with Fibroblast. Description: Incucyte cell viability with human fibroblast. As to conditions: 10 µM, compound concentration 10 uM.
Another data set deals with HEK-293T. Description: Incucyte cell viability with HEK293T. As to conditions: human, 10 µM, compound concentration 10 uM.
Where [1] appears, read: 6 h, replicate number 1, timepoint 6 hours.
Setting [2] is: 12 h, replicate number 1, timepoint 12 hours.
Where [3] appears, read: 12 h, replicate number 2, timepoint 12 hours.
The mark [4] stands for this setting: 18 h, replicate number 1, timepoint 18 hours.
Setting [5] is: 18 h, replicate number 2, timepoint 18 hours.
Setting [6] is: 24 h, replicate number 1, timepoint 24 hours.
Where [7] appears, read: 0 h, replicate number 1, timepoint 0 hours.
Where [8] appears, read: 6 h, replicate number 2, timepoint 6 hours.
[9] abbreviates: 24 h, replicate number 2, timepoint 24 hours.
[10] abbreviates: 0 h, replicate number 2, timepoint 0 hours.

The results in this text go back to ChEMBL document CHEMBL4689842, “EUbOPEN Chemogenomics Library wave 1” (2021).
Also: filed as whole numbers so only -1 and 0 and 1 occur.

Consider `CCCCCCCCCCCCCCCCOC[C@H](COP(=O)([O-])OCC[N+](C)(C)C)OC(C)=O`, for which the “Growth Rate” value came out at 0 in the data set on U2OS (setting [1]); 1 in the data set on U2OS (setting [2]); 0 in the data set on U2OS (setting [3]); 0 with U2OS (setting [4]); 1 with U2OS (setting [5]); 1 with U2OS (setting [6]). In addition, the “Growth Rate” value in the data set on Fibroblast (setting [7]) is reported as 0; with Fibroblast (setting [1]), 1; in the data set with Fibroblast (setting [8]), 0; with Fibroblast (setting [2]), 1; with Fibroblast (setting [4]), 1; with Fibroblast (setting [5]) it was 0. Also, the “Growth Rate” value in the data set with Fibroblast (setting [6]) stood at 1; in the data set on Fibroblast (setting [9]) it was 0; with HEK-293T (setting [7]), 1; with HEK-293T (setting [10]), 0; in the data set with HEK-293T (setting [1]) it was 1; in the data set on HEK-293T (setting [2]) it was 1. The “Growth Rate” value in the data set with HEK-293T (setting [4]) and in the data set with HEK-293T (setting [6]) was 1 each time.
Turning to `Cc1c(NC(=O)c2cc(C(N)=O)nc3cc(F)ccc23)c(C(F)(F)F)nn1Cc1ccc(C(C)(C)C)cc1` [BAY-588], the “Growth Rate” value with U2OS (setting [10]) was 0; with U2OS (setting [2]) it was 1; with U2OS (setting [4]), 0; with U2OS (setting [5]), 1; in the data set with U2OS (setting [6]), 1; in the data set on Fibroblast (setting [7]) it was 0. In addition, the “Growth Rate” value with Fibroblast (setting [1]), with Fibroblast (setting [2]), with Fibroblast (setting [4]), with Fibroblast (setting [6]), with HEK-293T (setting [7]) and with HEK-293T (setting [1]) was 0 each time. Further, the “Growth Rate” value with HEK-293T (setting [2]), in the data set on HEK-293T (setting [4]) and in the data set with HEK-293T (setting [6]) was 0 in each case.
Regarding `C[C@@H](c1cccc(C#N)c1)n1cc(Cl)cc(C(N)=O)c1=N.Cl`, the “Growth Rate” value came to 0 in the data set on U2OS (setting [7]); 1 in the data set on U2OS (setting [2]); 1 in the data set on U2OS (setting [4]); 1 in the data set with U2OS (setting [6]); 0 in the data set on Fibroblast (setting [7]); 1 with Fibroblast (setting [10]). The “Growth Rate” value in the data set on Fibroblast (setting [1]) is given as 1; in the data set on Fibroblast (setting [8]), 0; in the data set on Fibroblast (setting [3]), 0; in the data set with Fibroblast (setting [4]) it was 1; in the data set on Fibroblast (setting [6]), 1; with Fibroblast (setting [9]), 0. Also, the “Growth Rate” value turned out to be 0 in the data set on HEK-293T (setting [7]); 1 in the data set with HEK-293T (setting [1]); 0 in the data set on HEK-293T (setting [2]); 1 with HEK-293T (setting [3]); 1 with HEK-293T (setting [4]); 1 in the data set with HEK-293T (setting [6]).
As for `CC(=O)C1=C(C)N(c2cccc(C(F)(F)F)c2)C(=O)N[C@@H]1c1ccc(C#N)nc1` [BAY-678], the “Growth Rate” value is recorded as 0 in the data set with U2OS (setting [7]); 0 in the data set on U2OS (setting [1]); 0 in the data set on U2OS (setting [2]); 1 in the data set with U2OS (setting [3]); 0 in the data set with U2OS (setting [4]); 0 in the data set on U2OS (setting [6]). The “Growth Rate” value with Fibroblast (setting [7]) amounted to 1; in the data set with Fibroblast (setting [10]), 0; in the data set on Fibroblast (setting [1]) it was 1; in the data set with Fibroblast (setting [8]), 0; with Fibroblast (setting [2]) it was 0; in the data set on Fibroblast (setting [4]), 0. Also, the “Growth Rate” value with Fibroblast (setting [6]) is recorded as 0; with HEK-293T (setting [7]), 0; in the data set with HEK-293T (setting [10]), 1; in the data set on HEK-293T (setting [4]) it was 1; with HEK-293T (setting [6]), 1.
As for `CC(C)C[C@H](CO)Nc1nc(S[C@@H](C)c2ccccc2)nc2nc(N)sc12` [AZD-8797], the “Growth Rate” value with U2OS (setting [1]) is listed as 0; in the data set with U2OS (setting [2]), 0; in the data set on U2OS (setting [4]), 0; with U2OS (setting [6]), 0; in the data set with Fibroblast (setting [7]) it was 1; in the data set with Fibroblast (setting [10]), 0. In addition, the “Growth Rate” value with Fibroblast (setting [1]) is on record as 0; in the data set on Fibroblast (setting [2]), 0; in the data set on Fibroblast (setting [3]), 1; in the data set with Fibroblast (setting [4]), 0; in the data set with Fibroblast (setting [5]), 1; with Fibroblast (setting [6]) it was 0. Also, the “Growth Rate” value in the data set with Fibroblast (setting [9]) was found to be 1; with HEK-293T (setting [7]), 1; with HEK-293T (setting [10]) it was 0; in the data set with HEK-293T (setting [1]), 0; in the data set with HEK-293T (setting [8]), 1; in the data set on HEK-293T (setting [2]) it was 0. The “Growth Rate” value with HEK-293T (setting [3]) was determined as 1; in the data set with HEK-293T (setting [4]), 0; with HEK-293T (setting [6]) it was 0.
Take `CC1(C)CCC(C)(C)c2cc(NC(=O)c3ccc(C(=O)O)cc3)ccc21` [TAMIBAROTENE]: the “Growth Rate” value is recorded as 0 in the data set with U2OS (setting [7]); 0 with U2OS (setting [2]); 1 in the data set with U2OS (setting [3]); 0 in the data set on U2OS (setting [4]); 1 in the data set on U2OS (setting [5]); 1 in the data set with U2OS (setting [6]). Moreover, the “Growth Rate” value amounted to 0 with Fibroblast (setting [7]); 0 with Fibroblast (setting [1]); 0 in the data set on Fibroblast (setting [2]); 1 with Fibroblast (setting [3]); 0 in the data set with Fibroblast (setting [4]); 1 in the data set on Fibroblast (setting [6]). The “Growth Rate” value came out at 0 in the data set on HEK-293T (setting [7]); 1 in the data set with HEK-293T (setting [1]); 1 with HEK-293T (setting [2]); 1 in the data set with HEK-293T (setting [4]); 1 in the data set on HEK-293T (setting [6]).
Turning to `C=CC(=O)Nc1ccc2[nH]c(=O)n(C3CCN(C(=O)c4ccc(-c5nc6cc[nH]c(=O)c6cc5-c5ccccc5)cc4)CC3)c2c1`, the “Growth Rate” value is on record as 0 in the data set on U2OS (setting [10]); 1 with U2OS (setting [1]); 1 with U2OS (setting [2]); 1 in the data set on U2OS (setting [4]); 1 in the data set with U2OS (setting [6]); 0 in the data set on Fibroblast (setting [7]). Besides, the “Growth Rate” value is reported as 1 with Fibroblast (setting [2]); 1 in the data set on Fibroblast (setting [4]); 1 in the data set on Fibroblast (setting [6]); 0 in the data set on HEK-293T (setting [7]); 1 in the data set on HEK-293T (setting [9]).
On to `CCCCN(CCCC)C(=O)CN1C[C@H](c2cc(OC)c3c(c2)OCO3)[C@@H](C(=O)O)[C@@H]1CC(C)(C)CCC.Cc1ccc(S(=O)(=O)O)cc1`, for which the “Growth Rate” value stood at 0 in the data set with U2OS (setting [7]); 0 in the data set on U2OS (setting [1]); 1 in the data set with U2OS (setting [2]); 0 in the data set on U2OS (setting [4]); 1 in the data set with U2OS (setting [5]); 1 in the data set with U2OS (setting [6]). For the same compound, the “Growth Rate” value in the data set on Fibroblast (setting [7]) came to 0; in the data set on Fibroblast (setting [1]), 1; in the data set on Fibroblast (setting [2]) it was 1; in the data set with Fibroblast (setting [4]), 1; in the data set with Fibroblast (setting [6]) it was 0; in the data set with Fibroblast (setting [9]) it was 1. Also, the “Growth Rate” value with HEK-293T (setting [7]) was 0; in the data set with HEK-293T (setting [1]) it was 1; with HEK-293T (setting [8]), 0; with HEK-293T (setting [2]), 1; in the data set with HEK-293T (setting [3]), 0; in the data set on HEK-293T (setting [4]), 1. For the same compound, the “Growth Rate” value in the data set on HEK-293T (setting [5]) is reported as 0; in the data set on HEK-293T (setting [6]), 1; in the data set on HEK-293T (setting [9]) it was 0.
On to `c1ccc(Nc2nc3c(s2)CCCc2[nH]ncc2-3)nc1`, for which the “Growth Rate” value was 0 in the data set on U2OS (setting [10]); 1 in the data set with U2OS (setting [1]); 0 in the data set with U2OS (setting [8]); 1 with U2OS (setting [2]); 0 with U2OS (setting [4]); 1 in the data set on U2OS (setting [5]). Besides, the “Growth Rate” value was 0 with U2OS (setting [6]); 0 with Fibroblast (setting [1]); 1 with Fibroblast (setting [2]); 1 in the data set with Fibroblast (setting [4]); 0 with Fibroblast (setting [6]); 1 with HEK-293T (setting [7]). Moreover, the “Growth Rate” value in the data set on HEK-293T (setting [10]) is reported as 0; with HEK-293T (setting [1]), 0; with HEK-293T (setting [2]) it was 0; with HEK-293T (setting [4]) it was 0; in the data set on HEK-293T (setting [5]), 1; with HEK-293T (setting [6]), 0. Further, the “Growth Rate” value in the data set with HEK-293T (setting [9]) is 1.
For the compound `Cl.O=C([C@@H](Cc1cccc(C(F)(F)F)c1)NS(=O)(=O)c1cc(F)c2c(c1)CCNC2)N1CCCC1`, the “Growth Rate” value in the data set on U2OS (setting [7]) is given as 0; with U2OS (setting [1]) it was 0; with U2OS (setting [8]) it was 1; in the data set with U2OS (setting [2]) it was 1; in the data set with U2OS (setting [4]), 0; in the data set on U2OS (setting [5]), 1. In addition, the “Growth Rate” value worked out at 1 with U2OS (setting [6]); 1 with Fibroblast (setting [10]); 1 with Fibroblast (setting [2]); 1 with Fibroblast (setting [5]); 1 in the data set on Fibroblast (setting [6]); 0 in the data set on HEK-293T (setting [7]). Further, the “Growth Rate” value in the data set with HEK-293T (setting [10]), in the data set on HEK-293T (setting [8]), in the data set on HEK-293T (setting [3]) and with HEK-293T (setting [9]) was 1 in each case.
